These results are taken from US20250188030A1, “Biphenyl and Phenylpyridine Compounds” (Pfizer Inc., priority 2023, published 2025).

For test [1], the target named is KAT2A (Homo sapiens (Human), UniProt Q92830). The test is described as follows: KAT2A acetyltransferase biochemical assay (RapidFire mass spectrometry, AcCoA to CoA).
In test [2] the target is KAT2B (Homo sapiens (Human), UniProt Q92831). The test is described as follows: KAT2B acetyltransferase biochemical assay (RapidFire mass spectrometry, AcCoA to CoA).
Test [3] concerns MM.1S cells. Briefly: MM1.S 10 Day Proliferation Assay (CellTiter-Glo). The test is classed as cell-based, Human. The gist of the method: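 MM.1S cells, 500/well in ultra-low-attachment plates, were pre-incubated 16 h, then exposed to a 10-point 1:3 dilution series (top 10 μM final, 0.1% DMSO) for 10 days at 37 °C, with compound-containing medium refreshed at day 5. Viability was read by CellTiter-Glo luminescence; IC50 came from four-parameter fit.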
For orientation: ATP-based viability assays read luminescence as a measure of living cells.

Test [4] relates to H3K9AC (HT1080 cells). Briefly: H3K9AC Sandwich ELISA Assay in HT1080 cells (KAT2A primary cell-based screening assay). The arrangement: species or system Human. The gist of the method: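 Acetylated H3K9 quantified by luminescent sandwich ELISA (total H3 capture, H3K9ac detection) on HCl lysates of HT1080 cells. Cells had 24 h compound exposure at 37 °C, top concentration 10 µM, 10-point 3-fold series, 0.1% DMSO; IC50 from four-parameter fitting.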
Background: In an ELISA, binding on a coated surface is turned into a signal by an enzyme label.

Setting [5] is: read-out: KAT2A Ki at 1 μM AcCoA, 5 μM H3 1-21 peptide, 0.5 nM KAT2A, 90-minute reaction.
[6] abbreviates: read-out: KAT2B Ki at 1 μM AcCoA, 1 μM AcCoA, 5 μM H3 1-21 peptide, 0.5 nM KAT2B, 90-minute reaction.
[7] abbreviates: Homo sapiens, HT-1080, H3K9AC sandwich ELISA.
Setting [8] is: KAT2A Ki at 1 μM AcCoA, 5 μM H3 1-21 peptide, 0.5 nM KAT2A, 90-minute reaction.

Read-outs that look alike come from different tables or passages of the source.

KAT2A, sequence (Q92830 whole entry): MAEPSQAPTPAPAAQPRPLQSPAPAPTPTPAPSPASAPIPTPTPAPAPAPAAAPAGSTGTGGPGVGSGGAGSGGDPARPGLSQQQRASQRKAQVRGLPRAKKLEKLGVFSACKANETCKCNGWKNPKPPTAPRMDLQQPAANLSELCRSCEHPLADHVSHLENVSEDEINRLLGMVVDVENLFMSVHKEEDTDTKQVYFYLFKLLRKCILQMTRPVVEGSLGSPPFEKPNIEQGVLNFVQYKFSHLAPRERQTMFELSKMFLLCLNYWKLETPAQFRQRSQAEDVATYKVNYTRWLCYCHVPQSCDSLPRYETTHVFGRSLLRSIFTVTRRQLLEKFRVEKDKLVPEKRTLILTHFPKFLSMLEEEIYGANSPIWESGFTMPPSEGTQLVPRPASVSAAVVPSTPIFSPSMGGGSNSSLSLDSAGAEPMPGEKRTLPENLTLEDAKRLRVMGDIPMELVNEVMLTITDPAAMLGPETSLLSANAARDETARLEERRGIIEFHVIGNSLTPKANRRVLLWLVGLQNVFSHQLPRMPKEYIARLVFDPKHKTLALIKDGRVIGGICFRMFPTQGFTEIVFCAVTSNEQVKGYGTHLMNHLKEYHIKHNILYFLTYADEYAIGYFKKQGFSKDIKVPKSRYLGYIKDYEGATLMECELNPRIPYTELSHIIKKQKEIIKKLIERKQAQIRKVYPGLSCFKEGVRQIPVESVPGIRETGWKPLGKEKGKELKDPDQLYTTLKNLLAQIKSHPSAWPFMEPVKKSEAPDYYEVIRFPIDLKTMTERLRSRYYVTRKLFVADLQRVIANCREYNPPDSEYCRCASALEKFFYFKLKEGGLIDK
KAT2B, sequence (Q92831 2-832): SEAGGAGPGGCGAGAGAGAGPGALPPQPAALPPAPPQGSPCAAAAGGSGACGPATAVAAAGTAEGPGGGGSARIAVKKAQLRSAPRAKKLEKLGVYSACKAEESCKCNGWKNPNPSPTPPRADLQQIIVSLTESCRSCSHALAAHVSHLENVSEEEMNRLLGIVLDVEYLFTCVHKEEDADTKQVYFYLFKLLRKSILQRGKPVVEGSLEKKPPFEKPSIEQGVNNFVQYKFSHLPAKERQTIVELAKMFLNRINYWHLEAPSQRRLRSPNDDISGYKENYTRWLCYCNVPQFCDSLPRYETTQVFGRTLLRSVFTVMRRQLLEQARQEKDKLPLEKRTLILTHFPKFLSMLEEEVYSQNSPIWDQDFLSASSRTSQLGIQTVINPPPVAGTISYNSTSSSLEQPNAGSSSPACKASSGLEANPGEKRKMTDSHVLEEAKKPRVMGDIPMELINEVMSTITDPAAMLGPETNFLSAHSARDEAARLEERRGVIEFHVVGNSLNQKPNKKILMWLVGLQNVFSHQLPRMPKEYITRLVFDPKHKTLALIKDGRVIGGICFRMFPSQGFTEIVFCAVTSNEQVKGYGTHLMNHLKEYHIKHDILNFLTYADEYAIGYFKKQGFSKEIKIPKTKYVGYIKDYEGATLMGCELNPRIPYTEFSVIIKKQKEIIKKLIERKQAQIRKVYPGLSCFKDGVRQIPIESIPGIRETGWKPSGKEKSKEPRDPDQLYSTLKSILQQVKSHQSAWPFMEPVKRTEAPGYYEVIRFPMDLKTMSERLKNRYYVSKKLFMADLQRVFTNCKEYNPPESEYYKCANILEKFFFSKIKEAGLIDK

With `CN(C)S(=O)(=O)NC(=O)C(C)(C)c1ccc(O[C@@H]2CC[C@@H](NC(=O)[C@@]3(F)CNC(C)(C)C3)C2)c(-c2cccc(F)c2C2CCC2)c1` (single isomer, unassigned) [Example C9], the Ki (usually a measure of affinity in units of concentration, obtained from inhibition or displacement) in test [1] (setting [5]) came to 0.06 nM; in test [2] (setting [6]) it was 0.17 nM. The IC50 (as a rule, the point on the concentration scale where inhibition reaches its midpoint) in test [3] (Homo sapiens, MM1.S, 240 h) worked out at 13.7 nM; in test [4] (setting [7]) it was 6.96 nM.
On the same counts, the results for `CCc1c(F)cccc1-c1cc(C(C)(C)C(=O)NS(C)(=O)=O)ccc1O[C@@H]1CC[C@@H](NC(=O)[C@]2(F)CNC3(CCC3)C2)C1` (single isomer, unassigned) [Example C12] are 0.5 nM, 0.93 nM, 89.6 nM and 11 nM.
On the same counts, the results for `CC(C)(C(=O)NS(C)(=O)=O)c1ccc(O[C@@H]2CC[C@@H](NC(=O)[C@]3(F)CNC4(CCC4)C3)C2)c(-c2cccc(F)c2C2CC2)c1` (single isomer, unassigned) [Example C14] are 1.41 nM, 5.62 nM, 63.7 nM and 17.7 nM.
On to `CC(C)(C(=O)NS(C)(=O)=O)c1ccc(O[C@@H]2CC[C@@H](NC(=O)[C@@]3(F)CNC4(CCCC4)C3)C2)c(-c2cccc(F)c2C2CCC2)c1` (single isomer, unassigned) [Example C16], for which the Ki in test [1] (setting [5]) stood at 0.08 nM; in test [2] (setting [6]), 0.06 nM. Further, the IC50 came to 81.8 nM in test [3] and 23.2 nM in test [4] (H3K9AC sandwich ELISA).
On the same counts, the results for `CC(C)c1c(F)cccc1-c1cc(C(C)(C)C(=O)NS(C)(=O)=O)ccc1O[C@@H]1CC[C@@H](NC(=O)[C@@]2(F)CNC3(CCC3)C2)C1` (single isomer, unassigned) [Example C19] are 0.12 nM, 0.8 nM, 66.7 nM and 5.06 nM.
Turning to `CC(C)(C(=O)NS(=O)(=O)C1(C)CC1)c1ccc(O[C@@H]2CC[C@@H](NC(=O)[C@@]3(F)CNC4(CCC4)C3)C2)c(-c2cccc(F)c2C2CC2)c1` (single isomer, unassigned) [Example C21], the Ki was 0.09 nM in test [1] (setting [5]) and 0.11 nM in test [2] (setting [6]). Also, the IC50 in test [3] (Homo sapiens, MM1.S, 240 h) was determined as 13.7 nM; in test [4] (H3K9AC sandwich ELISA) it was 1.11 nM.
`CCc1c(F)cccc1-c1cc(C(C)(C)C(=O)NS(=O)(=O)CC)ccc1O[C@@H]1CC[C@@H](NC(=O)[C@@]2(F)CNC3(CCCC3)C2)C1` (single isomer, unassigned) [Example C24]: the Ki was determined as 0.34 nM in test [1] (setting [5]) and 0.22 nM in test [2] (setting [6]). The IC50 in test [3] (Homo sapiens, MM1.S, 240 h) stood at 9.83 nM; in test [4] (setting [7]) it was 2.77 nM.
As to `CCc1c(F)cccc1-c1cc(C(C)(C)C(=O)NS(=O)(=O)CC)ccc1O[C@@H]1CC[C@@H](NC(=O)[C@@]2(F)CNC3(CCCC3)C2)C1` (single isomer, unassigned) [Example C25], the inhibitory constant (Ki) in test [1] (setting [5]) turned out to be 0.14 nM; in test [2] (setting [6]) it was 0.55 nM. Besides, the half-inhibitory concentration (IC50) in test [3] is 9.29 nM; in test [4] (H3K9AC sandwich ELISA), 1.71 nM.
Take `CCc1c(F)cccc1-c1cc(C(C)(C)C(=O)NS(C)(=O)=O)ccc1O[C@@H]1CC[C@@H](NC(=O)[C@@]2(F)CNC3(CCCC3)C2)C1` (single isomer, unassigned) [Example C27]: the Ki in test [1] (setting [5]) worked out at 0.16 nM; in test [2] (setting [6]), 0.53 nM. The IC50 in test [3] (Homo sapiens, MM1.S, 240 h) came to 12.8 nM; in test [4] (setting [7]) it was 2.62 nM.
On the same counts, the results for `CCc1c(F)cccc1-c1cc(C(C)(C)C(=O)NS(=O)(=O)C(C)C)ccc1O[C@@H]1CC[C@@H](NC(=O)[C@@]2(F)CNC3(CCCC3)C2)C1` (single isomer, unassigned) [Example C29] are 0.14 nM, 0.47 nM, 7.11 nM and 1.86 nM.
For `CC(C)S(=O)(=O)NC(=O)Cc1ccc(O[C@@H]2CC[C@@H](NC(=O)[C@]3(F)CNC4(CCC4)C3)C2)c(-c2cccc(F)c2C2CCC2)c1` (single isomer, unassigned) [Example C40], the values for the Ki in test [1] (setting [8]) and in test [2] were 0.02 nM and 0.07 nM, respectively. Further, the IC50 in test [3] (Homo sapiens, MM1.S, 240 h) was found to be 3.5 nM; in test [4] (H3K9AC sandwich ELISA), 1.5 nM.
With `Cn1cc(-c2ccc(O[C@@H]3CC[C@@H](NC(=O)[C@]4(F)CNC5(CCC5)C4)C3)c(-c3cccc(F)c3C3CCC3)c2)c(C(C)(C)C(=O)O)n1` (single isomer, unassigned) [Example J7], the results for the Ki in test [1] (setting [5]) and in test [2] (setting [6]) were 0.26 nM and 0.46 nM, respectively. For the same molecule, the IC50 in test [3] (Homo sapiens, MM1.S, 240 h) was found to be 20.6 nM; in test [4] (H3K9AC sandwich ELISA), 3.88 nM.
On the same counts, the results for `Cn1cc(-c2ccc(O[C@@H]3CC[C@@H](NC(=O)[C@]4(F)CNC5(CCC5)C4)C3)c(-c3cccc(F)c3C3CCC3)c2)c(C(=O)O)n1` (single isomer, unassigned) [Example J10] are 0.27 nM, 0.49 nM, 52 nM and 19.5 nM.
As to `CN1CC(C)(C)C[C@H]1C(=O)N[C@H]1C[C@H](Oc2ccc(C(=O)O)cc2-c2cccc(F)c2C2CCC2)C[C@H]1O` (single isomer, unassigned) [Example K3, 2′-cyclobutyl-3′-fluoro-6-({(1ξ,3ξ,4ξ)-3-hydroxy-4-[(1,4,4-trimethyl-L-prolyl)amino]cyclopentyl}oxy)[1,1′-biphenyl]-3-carboxylic acid], the Ki in test [1] (setting [5]) came out at 0.19 nM; in test [2] (setting [6]), 0.56 nM. Besides, the IC50 was determined as 15.9 nM in test [3] (Homo sapiens, MM1.S, 240 h) and 4.29 nM in test [4] (setting [7]).
For the molecule `CC(C)(C(=O)NS(=O)(=O)N1CCC1)c1ccc(O[C@@H]2CC[C@@H](NC(=O)[C@@]3(F)CNC4(CCC4)C3)C2)c(-c2cccc(F)c2C2CCC2)c1` [Example C3, (7S)-N-{(1R,3R)-3-[(5-{1-[(azetidin-1-ylsulfonyl)amino]-2-methyl-1-oxopropan-2-yl}-2′-cyclobutyl-3′-fluorobiphenyl-2-yl)oxy]cyclopentyl}-7-fluoro-5-azaspiro[3.4]octane-7-carboxamide], the results for the Ki in test [1] (setting [5]) and in test [2] (setting [6]) were 0.05 nM and 0.06 nM, respectively. In addition, the IC50 in test [3] (Homo sapiens, MM1.S, 240 h) turned out to be 6.22 nM; in test [4] (setting [7]), 3.84 nM.
On the same counts, the results for `CCc1c(F)cccc1-c1cc(C(C)(C)C(=O)NS(=O)(=O)C(C)C)ccc1O[C@@H]1CC[C@@H](NC(=O)[C@@]2(F)CNC3(CCC3)C2)C1` [Example C18, (7S)-N-[(1R,3R)-3-({2′-ethyl-3′-fluoro-5-[2-methyl-1-oxo-1-(propane-2-sulfonamido)propan-2-yl][1,1′-biphenyl]-2-yl}oxy)cyclopentyl]-7-fluoro-5-azaspiro[3.4]octane-7-carboxamide] are 0.1 nM, 0.31 nM, 30.6 nM and 2.34 nM.
For `CN1CC(C)(C)C[C@H]1C(=O)N[C@@H]1CC[C@@H](Oc2ccc(CC(=O)O)cc2-c2cccc(F)c2C2CCC2)C1` [Example D10, [2′-cyclobutyl-3′-fluoro-6-({(1R,3R)-3-[(1,4,4-trimethyl-L-prolyl)amino]cyclopentyl}oxy)[1,1′-biphenyl]-3-yl]acetic acid], the Ki in test [1] (setting [5]) came to 9.48 nM; in test [2] (setting [6]), 22.2 nM. Besides, the IC50 in test [3] (Homo sapiens, MM1.S, 240 h) is 193 nM; in test [4] (setting [7]), 39.2 nM.
For `CN1CC(C)(C)C[C@H]1C(=O)N[C@@H]1CC[C@@H](Oc2ccc(C(C)(C)C(=O)NS(C)(=O)=O)cc2-c2cccc(F)c2C2CCC2)C1` [Example E1, N-{(1R,3R)-3-[(2′-cyclobutyl-3′-fluoro-5-{1-[(methanesulfonyl)amino]-2-methyl-1-oxopropan-2-yl}[1, 1′-biphenyl]-2-yl)oxy]cyclopentyl}-1,4,4-trimethyl-L-prolinamide], the Ki in test [1] (setting [5]) amounted to 0.15 nM; in test [2] (setting [6]), 0.38 nM. Moreover, the half-maximal inhibitory concentration (IC50) was 31.5 nM in test [3] (Homo sapiens, MM1.S, 240 h) and 5.06 nM in test [4] (setting [7]).
Take `CN1CC(C)(C)C[C@H]1C(=O)N[C@@H]1CC[C@@H](Oc2ccc(CC(=O)NS(=O)(=O)N(C)C)cc2-c2cccc(F)c2C2CCC2)C1` [Example E3, N-{(1R,3R)-3-[(2′-cyclobutyl-5-{2-[(dimethylsulfamoyl)amino]-2-oxoethyl}-3′-fluoro[1,1′-biphenyl]-2-yl)oxy]cyclopentyl}-1,4,4-trimethyl-L-prolinamide]: the Ki in test [1] (setting [5]) is 0.03 nM; in test [2] (setting [6]) it was 0.02 nM. In addition, the IC50 in test [3] (Homo sapiens, MM1.S, 240 h) came out at 3.82 nM; in test [4] (setting [7]) it was 0.84 nM.
On the same counts, the results for `CN1CC(C)(C)C[C@H]1C(=O)N[C@@H]1CC[C@@H](Oc2ccc(C(C)(C)C(=O)NS(=O)(=O)N(C)C)cc2-c2cccc(F)c2C2CCC2)C1` [Example E4, N-{(1R,3R)-3-[(2′-cyclobutyl-5-{1-[(dimethylsulfamoyl)amino]-2-methyl-1-oxopropan-2-yl}-3′-fluoro[1,1′-biphenyl]-2-yl)oxy]cyclopentyl}-1,4,4-trimethyl-L-prolinamide] are 0.08 nM, 0.21 nM, 15.9 nM and 8.38 nM.
As to `CN1CC(C)(C)C[C@H]1C(=O)N[C@@H]1CC[C@@H](Oc2ccc(-c3cn(C)nc3C(=O)O)cc2-c2cccc(F)c2C2CCC2)C1` [Example J1, 4-[2′-cyclobutyl-3′-fIuoro-6-({(1R,3R)-3-[(1,4,4-trimethyl -L-prolyl)amino]cyclopentyl}oxy)[1,1′-biphenyl]-3-yl]-1-methyl-1H-pyrazole-3-carboxylic acid], the Ki was 0.41 nM in test [1] (setting [8]) and 0.74 nM in test [2]. For the same molecule, the IC50 in test [3] (Homo sapiens, MM1.S, 240 h) was 8.43 nM; in test [4] (setting [7]) it was 14.9 nM.
